Laboratory results as given in ChEMBL document CHEMBL2046307, “Plumbagin induces apoptosis in Her2-overexpressing breast cancer cells through the mitochondrial-mediated pathway” (J Nat Prod, 2012).
pIC50: −log10 of the molar value. Calls of active or inactive are those of the source. No cut-off for these calls is given here.

How the values were obtained:
SK-BR-3 [1] = assay: Induction of apoptosis in Her2-overexpressing human SKBR3 cells assessed as increase in Bax protein level after 24 hrs by Western blot analysis; type: functional, cell-based
SK-BR-3 [2] = assay: Anticlonogenic activity in Her2-overexpressing human SKBR3 cells assessed as inhibition of colony formation after 6 hrs followed by washout measured after 16 days by crystal violet staining; type: functional, cell-based
MDA-MB-231 = assay: Antitumor activity against human MDA-MB-231 cells xenografted in nude mouse assessed as decrease in tumor volume; type: functional; parameters: scale not given: the % may be the effect or the level left
BT-474 [3] = assay: Cytotoxicity against Her2-overexpressing human BT474 cells after 24 to 72 hrs by MTT assay; type: functional, cell-based
SK-BR-3 [4] = assay: Induction of apoptosis in Her2-overexpressing human SKBR3 cells assessed as decrease in Bcl-2 protein level after 24 hrs by Western blot analysis; type: functional, cell-based
SK-BR-3 [5] = assay: Cytotoxicity against Her2-overexpressing human SKBR3 cells after 24 hrs by MTT assay; type: functional, cell-based; conditions: SK-BR-3, 24 h
BT-474 [6] = assay: Induction of apoptosis in Her2-overexpressing human BT474 cells assessed as increase in caspase activity after 6 hrs by fluorescence analysis; type: functional, cell-based
SK-BR-3 [7] = assay: Induction of apoptosis in Her2-overexpressing human SKBR3 cells assessed as increase in BaK protein level after 24 hrs by Western blot analysis; type: functional, cell-based
BT-474 [8] = assay: Induction of apoptosis in Her2-overexpressing human BT474 cells assessed as decrease in Bcl-2 protein level after 24 hrs by Western blot analysis; type: functional, cell-based
BT-474 [9] = assay: Anticlonogenic activity in Her2-overexpressing human BT474 cells assessed as inhibition of colony formation after 6 hrs followed by washout measured after 16 days by crystal violet staining; type: functional, cell-based
SK-BR-3 [10] = assay: Induction of cell cycle arrest in Her2-overexpressing human SKBR3 cells assessed as increase in DNA accumulation at subG1 phase after 24 hrs by propidium iodide staining-based flow cytometric analysis; type: functional
SK-BR-3 [11] = assay: Induction of cell cycle arrest in Her2-overexpressing human SKBR3 cells assessed as increase in DNA accumulation at subG1 phase at 10 uM after 24 hrs by propidium iodide staining-based flow cytometric analysis (reference value: 11%); type: functional
SK-BR-3 [12] = assay: Induction of cell cycle arrest in Her2-overexpressing human SKBR3 cells assessed as increase in DNA accumulation at subG1 phase at 5 uM after 24 hrs by propidium iodide staining-based flow cytometric analysis (reference value: 11%); type: functional
SK-BR-3 [13] = assay: Cytotoxicity against Her2-overexpressing human SKBR3 cells after 72 hrs by MTT assay; type: functional, cell-based; conditions: SK-BR-3, 72 h
SK-BR-3 [14] = assay: Induction of apoptosis in Her2-overexpressing human SKBR3 cells assessed as increase in caspase activity after 6 hrs by fluorescence analysis; type: functional, cell-based
BT-474 [15] = assay: Anticlonogenic activity in Her2-overexpressing human BT474 cells assessed as inhibition of colony formation at 1 uM after 6 hrs followed by washout measured after 16 days by crystal violet staining; type: functional
BT-474 [16] = assay: Ratio of IC50 for Her2-overexpressing human BT474 cells after 24 hrs to IC50 for Her2-overexpressing human BT474 cells after 72 hrs; type: functional
SK-BR-3 [17] = assay: Anticlonogenic activity in Her2-overexpressing human SKBR3 cells assessed as inhibition of colony formation at 1 uM after 6 hrs followed by washout measured after 16 days by crystal violet staining; type: functional
BT-474 [18] = assay: Cytotoxicity against Her2-overexpressing human BT474 cells after 24 hrs by MTT assay; type: functional, cell-based; conditions: BT-474, 24 h
BT-474 [19] = assay: Induction of apoptosis in Her2-overexpressing human BT474 cells assessed as increase in BaK protein level after 24 hrs by Western blot analysis; type: functional, cell-based
BT-474 [20] = assay: Cytotoxicity against Her2-overexpressing human BT474 cells after 72 hrs by MTT assay; type: functional, cell-based; conditions: BT-474, 72 h
SK-BR-3 [21] = assay: Induction of apoptosis in Her2-overexpressing human SKBR3 cells assessed as increase in caspase activity after 6 hrs by fluorescence analysis relative to control; type: functional
SK-BR-3 [22] = assay: Induction of cell cycle arrest in Her2-overexpressing human SKBR3 cells assessed as increase in DNA accumulation at subG1 phase at 2.5 uM after 24 hrs by propidium iodide staining-based flow cytometric analysis (reference value: 11%); type: functional
BT-474 [23] = assay: Induction of apoptosis in Her2-overexpressing human BT474 cells assessed as increase in Bax protein level after 24 hrs by Western blot analysis; type: functional, cell-based
BT-474 [24] = assay: Induction of apoptosis in Her2-overexpressing human BT474 cells assessed as increase in caspase activity at 10 uM after 6 hrs by fluorescence analysis relative to control; type: functional
SK-BR-3 [25] = assay: Cytotoxicity against Her2-overexpressing human SKBR3 cells after 24 to 72 hrs by MTT assay; type: functional, cell-based
BT-474 [26] = assay: Induction of apoptosis in Her2-overexpressing human BT474 cells assessed as accumulation at subG1 phase by propidium iodide staining-based flow cytometric analysis; type: functional, cell-based

With `CC1=CC(=O)c2c(O)cccc2C1=O` [PLUMBAGIN] the Activity (SK-BR-3 [1]) was “Dose-dependent effect”, the Activity (SK-BR-3 [2]) was “Dose-dependent effect” and the Activity (MDA-MB-231) was 70%. For the same molecule, the Activity (BT-474 [3]) was “Dose-dependent effect”, the Activity (SK-BR-3 [4]) was “Active” and the pIC50 (SK-BR-3 [5]) was 5.49. The Activity (BT-474 [6]) was “Dose-dependent effect”, the Activity (SK-BR-3 [7]) was “Dose-dependent effect” and the Activity (BT-474 [8]) was “Active”. The Activity (BT-474 [9]) was “Dose-dependent effect”, the Activity (SK-BR-3 [10]) was “Dose-dependent effect” and the Activity (SK-BR-3 [11]) was 73%. The Activity (SK-BR-3 [12]) was 43%, the pIC50 (SK-BR-3 [13]) was 5.74 and the Activity (SK-BR-3 [14]) was “Dose-dependent effect”. The inhibition at 1 µM (BT-474 [15]) was 40%, the “Ratio IC50” value (BT-474 [16]) was 2 and the inhibition at 1 µM (SK-BR-3 [17]) was 50%. For the same molecule, the pIC50 (BT-474 [18]) was 5.74, the Activity (BT-474 [19]) was “Dose-dependent effect” and the pIC50 (BT-474 [20]) was 6.10. The “fold change (FC)” value (SK-BR-3 [21]) was 4, the Activity (SK-BR-3 [22]) was 20% and the Activity (BT-474 [23]) was “Dose-dependent effect”. For the same molecule, the “fold change (FC)” value (BT-474 [24]) was 5, the Activity (SK-BR-3 [25]) was “Dose-dependent effect” and the Activity (BT-474 [26]) was “inactive”.
